Source: patent publication US20240409585A1, “MACROCYCLIC IMMUNOMODULATORS” (priority 2021, published 2024)
Bridge positions count the residues as written; N and C are the ends. Square brackets hold non-standard residues; d marks the D form. Peptide text beside a SMILES is read from it. * marks the point of attachment. Bip(4'-COOH) = N[C@@H](Cc1ccc(-c2ccc(C(=O)O)cc2)cc1)C(=O)O; Bip(4'-NHAc) = CC(=O)Nc1ccc(-c2ccc(C[C@H](N)C(=O)O)cc2)cc1; Phe(3-CF3) = N[C@@H](Cc1cccc(C(F)(F)F)c1)C(=O)O; Ala(morpholin-4-yl) = N[C@@H](CN1CCOCC1)C(=O)O; Phe(4-COOH) = N[C@@H](Cc1ccc(C(=O)O)cc1)C(=O)O; Bip = N[C@@H](Cc1ccc(-c2ccccc2)cc1)C(=O)O; Phe(2-Cl) = N[C@@H](Cc1ccccc1Cl)C(=O)O; Phe(3-Me) = Cc1cccc(C[C@H](N)C(=O)O)c1; Propanoyl(3,3,3-F3) = O=C(CC(F)(F)F)*; Val(3-OH) = CC(C)(O)[C@H](N)C(=O)O; hArg = N=C(N)NCCCC[C@H](N)C(=O)O; hPhe = N[C@@H](CCc1ccccc1)C(=O)O; Aad = N[C@@H](CCCC(=O)O)C(=O)O; Cha = N[C@@H](CC1CCCCC1)C(=O)O; Carboxymethyl = O=C(O)C*; NMeA = CN[C@@H](C)C(=O)O; Nle = CCCC[C@H](N)C(=O)O; Orn = NCCC[C@H](N)C(=O)O; Dab = NCC[C@H](N)C(=O)O; Dap = NC[C@H](N)C(=O)O

The compounds below were run against T1, Alexa fluor-647 labeled human PD-L1-Ig binding to Jurkat cell line over-expressing human PD-1 (Homo sapiens, UniProt Q15116) (assay: Jurkat-PD-1 Cell Binding High-Content Screening Assay (CBA): Method 3 (Alexa fluor-647 labeled PD-L1-Ig)). Settings: Jurkat-PD-1 cells, Alexa fluor-647 labeled PD-L1-Ig 177 nM; head μM; read-out: CBA Method 3 μM.
T1 construct: expressed in transfected cells; host or cells: Jurkat
T1 sequence (Q15116 25-288): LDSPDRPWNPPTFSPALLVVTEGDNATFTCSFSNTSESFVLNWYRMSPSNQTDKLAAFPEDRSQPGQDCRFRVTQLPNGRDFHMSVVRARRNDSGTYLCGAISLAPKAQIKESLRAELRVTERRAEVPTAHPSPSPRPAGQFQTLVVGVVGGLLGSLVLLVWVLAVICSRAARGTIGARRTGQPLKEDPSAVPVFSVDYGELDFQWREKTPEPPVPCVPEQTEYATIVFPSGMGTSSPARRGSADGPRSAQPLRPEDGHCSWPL
How it was run: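 Jurkat cells over-expressing human PD-1 in RPMI/10% FCS were preincubated 2 h at 37 °C with compound, then exposed 1 h to Alexa fluor-647 labeled human PD-L1-Ig (177 nM final). Cells fixed in 4% paraformaldehyde with Hoechst 33342 and binding quantified by high-content imaging.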
`CCCC[C@@H]1NC(=O)CSC[C@@H](C(=O)N[C@@H](CCN)C(N)=O)NC(=O)[C@H](CCCN)NC(=O)[C@H](C(C)C)NC(=O)[C@H](CC2CCCCC2)NC(=O)[C@H](CCN)NC(=O)[C@@H](CC(C)C)NC(=O)[C@H](C)N(C)C(=O)[C@H](CCC(N)=O)NC(=O)[C@H](Cc2ccc(-c3ccccc3)cc2)NC(=O)[C@H](Cc2ccc(C(=O)O)cc2)NC(=O)[C@H](Cc2cccc(C)c2)NC(=O)[C@H](CC(=O)O)NC(=O)[C@H](Cc2ccc(OCC(=O)O)cc2)NC1=O` [Example 5175] ({CH2CO}-[Nle]Y(Carboxymethyl)D[Phe(3-Me)][Phe(4-COOH)][Bip]Q[NMeA][dL][Dab][Cha]V[Orn]C[Dab]-NH2; thioether N-14) showed an IC50 of 0.01 µM. `Cc1cccc(C[C@@H]2NC(=O)[C@H](CC(=O)O)NC(=O)[C@H](Cc3ccc(-c4ccc(C(=O)O)cc4)cc3)NC(=O)[C@H](CN3CCOCC3)NC(=O)CSC[C@@H](C(=O)N[C@@H](CCN)C(N)=O)NC(=O)[C@H](CCC(=O)O)NC(=O)[C@H](C(C)C)NC(=O)[C@H](CC3CCCCC3)NC(=O)[C@H](CCN)NC(=O)[C@@H](CC(C)C)NC(=O)[C@H](C)N(C)C(=O)[C@H](Cc3ccc(C(=O)O)cc3)NC(=O)[C@H](Cc3ccc(-c4ccccc4)cc3)NC(=O)[C@H](Cc3ccc(-c4ccc(C(=O)O)cc4)cc3)NC2=O)c1` [Example 5093] ({CH2CO}-[Ala(morpholin-4-yl)][Bip(4'-COOH)]D[Phe(3-Me)][Bip(4'-COOH)][Bip][Phe(4-COOH)][NMeA][dL][Dab][Cha]VEC[Dab]-NH2; thioether N-14) gave an IC50 of 0.16 µM. For `CC(=O)Nc1ccc(-c2ccc(C[C@@H]3NC(=O)[C@H](Cc4cccc(C)c4)NC(=O)[C@H](CC(=O)O)NC(=O)[C@H](Cc4ccc(C(=O)O)cc4)NC(=O)[C@H](CC4CCCCC4)NC(=O)CSC[C@@H](C(=O)N[C@@H](CCN)C(N)=O)NC(=O)[C@H](CCC(=O)O)NC(=O)[C@H](C(C)C)NC(=O)[C@H](CC4CCCCC4)NC(=O)[C@H](CCN)NC(=O)[C@@H](CC(C)C)NC(=O)[C@H](C)N(C)C(=O)[C@H](CCC(N)=O)NC(=O)[C@H](Cc4ccc(-c5ccccc5)cc4)NC3=O)cc2)cc1` [Example 5203] ({CH2CO}-[Cha][Phe(4-COOH)]D[Phe(3-Me)][Bip(4'-NHAc)][Bip]Q[NMeA][dL][Dab][Cha]VEC[Dab]-NH2; thioether N-14), the IC50 was 0.01 µM. Work on `CC(=O)Nc1ccc(-c2ccc(C[C@@H]3NC(=O)[C@H](Cc4cccc(C(F)(F)F)c4)NC(=O)[C@H](CC(=O)O)NC(=O)[C@H](Cc4ccc(C(=O)O)cc4)NC(=O)[C@H](Cc4ccc(OCC(=O)O)cc4)NC(=O)CSC[C@@H](C(=O)N[C@@H](CCN)C(N)=O)NC(=O)[C@H](CCC(=O)O)NC(=O)[C@H](C(C)C)NC(=O)[C@H](CC4CCCCC4)NC(=O)[C@H](CCN)NC(=O)[C@@H](CC(C)C)NC(=O)[C@H](C)N(C)C(=O)[C@H](Cc4ccc(OCC(=O)O)cc4)NC(=O)[C@H](Cc4ccc(-c5ccccc5)cc4)NC3=O)cc2)cc1` [Example 5156] ({CH2CO}-Y(Carboxymethyl)[Phe(4-COOH)]D[Phe(3-CF3)][Bip(4'-NHAc)][Bip]Y(Carboxymethyl)[NMeA][dL][Dab][Cha]VEC[Dab]-NH2; thioether N-14) yielded an IC50 of 0.07 µM. Compound `CC(C)C[C@H]1NC(=O)[C@H](C)N(C)C(=O)[C@H](Cc2ccc(C(=O)O)cc2)NC(=O)[C@H](Cc2ccc(-c3ccccc3)cc2)NC(=O)[C@H](CCc2ccccc2)NC(=O)[C@H](Cc2cccc(C(F)(F)F)c2)NC(=O)[C@H](CC(=O)O)NC(=O)[C@H](Cc2ccc(C(=O)O)cc2)NC(=O)[C@H](CN2CCOCC2)NC(=O)CSC[C@@H](C(=O)N[C@@H](CCN)C(N)=O)NC(=O)[C@H](CNC(=O)CC(F)(F)F)NC(=O)[C@H](C(C)C)NC(=O)[C@H](CC2CCCCC2)NC(=O)[C@H](CCN)NC1=O` [Example 5207] ({CH2CO}-[Ala(morpholin-4-yl)][Phe(4-COOH)]D[Phe(3-CF3)][hPhe][Bip][Phe(4-COOH)][NMeA][dL][Dab][Cha]V[Dap](Propanoyl(3,3,3-F3))C[Dab]-NH2; thioether N-14) has an IC50 of 0.03 µM. `Cc1cccc(C[C@@H]2NC(=O)[C@H](CC(=O)O)NC(=O)[C@H](Cc3ccc(OCC(=O)O)cc3)NC(=O)[C@H](CC3CCCCC3)NC(=O)CSC[C@@H](C(=O)N[C@@H](CCN)C(N)=O)NC(=O)[C@H](CCC(N)=O)NC(=O)[C@H](C(C)C)NC(=O)[C@H](CC3CCCCC3)NC(=O)[C@H](CCN)NC(=O)[C@@H](CC(C)C)NC(=O)[C@H](C)N(C)C(=O)[C@H](CCC(N)=O)NC(=O)[C@H](Cc3ccc(-c4ccccc4)cc3)NC(=O)[C@H](CCc3ccccc3)NC2=O)c1` [Example 5222] ({CH2CO}-[Cha]Y(Carboxymethyl)D[Phe(3-Me)][hPhe][Bip]Q[NMeA][dL][Dab][Cha]VQC[Dab]-NH2; thioether N-14) was tested, and the IC50 was 0.02 µM. For `CC(=O)Nc1ccc(-c2ccc(C[C@@H]3NC(=O)[C@H](Cc4cccc(C)c4)NC(=O)[C@H](CC(=O)O)NC(=O)[C@H](Cc4ccc(C(=O)O)cc4)NC(=O)[C@H](CN4CCOCC4)NC(=O)CSC[C@@H](C(=O)N[C@@H](CCN)C(N)=O)NC(=O)[C@H](CCCC(N)=O)NC(=O)[C@H](C(C)C)NC(=O)[C@H](CC4CCCCC4)NC(=O)[C@H](CCN)NC(=O)[C@@H](CC(C)C)NC(=O)[C@H](C)N(C)C(=O)[C@H](Cc4ccc(C(=O)O)cc4)NC(=O)[C@H](Cc4ccc(-c5ccccc5)cc4)NC3=O)cc2)cc1` [Example 5257] ({CH2CO}-[Ala(morpholin-4-yl)][Phe(4-COOH)]D[Phe(3-Me)][Bip(4'-NHAc)][Bip][Phe(4-COOH)][NMeA][dL][Dab][Cha]V[Aad](NH2)C[Dab]-NH2; thioether N-14), the IC50 was 0.03 µM. In the case of `Cc1cccc(C[C@@H]2NC(=O)[C@H](CC(=O)O)NC(=O)[C@H](Cc3ccc(OCC(=O)O)cc3)NC(=O)[C@H](CCCCNC(=N)N)NC(=O)CSC[C@@H](C(=O)N[C@@H](CCN)C(N)=O)NC(=O)[C@H](CO)NC(=O)[C@H](C(C)(C)O)NC(=O)[C@H](CC3CCCCC3)NC(=O)[C@H](CCN)NC(=O)[C@@H](CC(C)C)NC(=O)[C@H](C)N(C)C(=O)[C@H](CCC(N)=O)NC(=O)[C@H](Cc3ccc(-c4ccccc4)cc3)NC(=O)[C@H](CCc3ccccc3)NC2=O)c1` [Example 5282] ({CH2CO}-[hArg]Y(Carboxymethyl)D[Phe(3-Me)][hPhe][Bip]Q[NMeA][dL][Dab][Cha][Val(3-OH)]SC[Dab]-NH2; thioether N-14), the IC50 is reported as 0.17 µM.

Same assay, conditions: Jurkat-PD-1 cells, Alexa fluor-647 labeled PD-L1-Ig 177 nM; nM; read-out: CBA Method 3
`CC(C)C[C@H]1NC(=O)[C@H](C)N(C)C(=O)[C@H](Cc2ccc(C(=O)O)cc2)NC(=O)[C@H](Cc2ccc(-c3ccccc3)cc2)NC(=O)[C@H](CCc2ccccc2)NC(=O)[C@H](Cc2cccc(C(F)(F)F)c2)NC(=O)[C@H](CC(=O)O)NC(=O)[C@H](Cc2ccc(C(=O)O)cc2)NC(=O)[C@H](CN2CCOCC2)NC(=O)CSC[C@@H](C(=O)N[C@@H](CCN)C(N)=O)NC(=O)[C@H](CCC(N)=O)NC(=O)[C@H](C(C)C)NC(=O)[C@H](CC2CCCCC2)NC(=O)[C@H](CCN)NC1=O` [Example 5204] ({CH2CO}-[Ala(morpholin-4-yl)][Phe(4-COOH)]D[Phe(3-CF3)][hPhe][Bip][Phe(4-COOH)][NMeA][dL][Dab][Cha]VQC[Dab]-NH2; thioether N-14) showed an IC50 of 0.0065 µM. `Cc1cccc(C[C@@H]2NC(=O)[C@H](CC(=O)O)NC(=O)[C@H](Cc3ccc(OCC(=O)O)cc3)NC(=O)[C@H](Cc3ccccc3Cl)NC(=O)CSC[C@@H](C(=O)N[C@@H](CCN)C(N)=O)NC(=O)[C@H](CCCN)NC(=O)[C@H](C(C)C)NC(=O)[C@H](CC3CCCCC3)NC(=O)[C@H](CCN)NC(=O)[C@@H](CC(C)C)NC(=O)[C@H](C)N(C)C(=O)[C@H](CCC(N)=O)NC(=O)[C@H](Cc3ccc(-c4ccccc4)cc3)NC(=O)[C@H](Cc3ccc(C(=O)O)cc3)NC2=O)c1` [Example 5291] ({CH2CO}-[Phe(2-Cl)]Y(Carboxymethyl)D[Phe(3-Me)][Phe(4-COOH)][Bip]Q[NMeA][dL][Dab][Cha]V[Orn]C[Dab]-NH2; thioether N-14) was tested, and the IC50 was 0.0002 µM. For `CC(C)C[C@H]1NC(=O)[C@H](C)N(C)C(=O)[C@H](Cc2ccc(C(=O)O)cc2)NC(=O)[C@H](Cc2ccc(-c3ccccc3)cc2)NC(=O)[C@H](CCc2ccccc2)NC(=O)[C@H](Cc2cccc(C(F)(F)F)c2)NC(=O)[C@H](CC(=O)O)NC(=O)[C@H](Cc2ccc(C(=O)O)cc2)NC(=O)[C@H](CCCCNC(=N)N)NC(=O)CSC[C@@H](C(=O)N[C@@H](CCN)C(N)=O)NC(=O)[C@H](CO)NC(=O)[C@H](C(C)(C)O)NC(=O)[C@H](CC2CCCCC2)NC(=O)[C@H](CCN)NC1=O` [Example 5252] ({CH2CO}-[hArg][Phe(4-COOH)]D[Phe(3-CF3)][hPhe][Bip][Phe(4-COOH)][NMeA][dL][Dab][Cha][Val(3-OH)]SC[Dab]-NH2; thioether N-14), the IC50 was 0.0012 µM. For `CC(C)C[C@H]1NC(=O)[C@H](C)N(C)C(=O)[C@H](CCC(N)=O)NC(=O)[C@H](Cc2ccc(-c3ccccc3)cc2)NC(=O)[C@H](Cc2ccc(-c3ccc(C(=O)O)cc3)cc2)NC(=O)[C@H](Cc2cccc(C(F)(F)F)c2)NC(=O)[C@H](CC(=O)O)NC(=O)[C@H](Cc2ccc(C(=O)O)cc2)NC(=O)[C@H](Cc2ccc(OCC(=O)O)cc2)NC(=O)CSC[C@@H](C(=O)N[C@@H](CCN)C(N)=O)NC(=O)[C@H](CCCN)NC(=O)[C@H](C(C)C)NC(=O)[C@H](CC2CCCCC2)NC(=O)[C@H](CCN)NC1=O` [Example 5167] ({CH2CO}-Y(Carboxymethyl)[Phe(4-COOH)]D[Phe(3-CF3)][Bip(4'-COOH)][Bip]Q[NMeA][dL][Dab][Cha]V[Orn]C[Dab]-NH2; thioether N-14), the IC50 was 0.0003 µM.
